According to US11203563B2, “Preparation of zinc linolenate, and application of zinc linolenate in preparing anti-helicobacter pylori drug” (NANJING MEDICAL UNIVERSITY, priority 2018, dated 2021):

Experiments:
Assay type in all cases: cell-based
Ges-1 cells = tested on: Ges-1 cells
From the text: 2.4.1 Cytotoxicity detection

[1] = tested on: 25 kinds of non-Helicobacter pylori bacteria, including Staphylococcus aureus; assay: MIC by microdilution method, 25 kinds of non-Helicobacter pylori bacteria together; details: all 25 kinds of non-Helicobacter pylori bacteria, 72 h
Experimental: 2.2 Detection of minimum inhibitory concentration (MIC, 100 µL system) of zinc linolenate for non-Helicobacter pylori bacteria by microdilution method
(§1) (1) Zinc linolenate (2 mg/mL) is prepared.
(§2) (3) Bacterial solution preparation: the non-Helicobacter pylori grown in a log phase on a solid plate is taken to make a bacterial suspension with a BHI culture medium, the absorbance (OD600) is adjusted to 0.3 (1×10^8 CFU/mL), and the bacterial suspension is diluted 100 times to 1×10^6 CFU/mL for use.
(4) Inoculation of bacterial solution: 10 μL of bacterial solution above is taken and added to the 1-8th wells (the concentration of the bacterial solution per well is about 1.0×10^5 CFU/mL). Culture is performed for 72 h to judge the result. The drug concentrations of the first-seventh wells are 128, 64, 32, 16, 8, 4, and 2 μg/mL, respectively.
(§3) The experiment only makes sense when the bacteria obviously grow in the 8th well, i.e. the positive control well (without antibiotics). When a single drift occurs in the microdilution method, the maximum drug concentration that inhibits bacterial growth should be recorded. If there are multiple drifts, the results should not be reported and the experiment should be repeated. The experiment is repeated 3 times for each drug.

[2] = tested on: Helicobacter pylori HP163; assay: MIC by broth microdilution method; parameters: key: +: Bacterial growth; −: No bacterial growth; details: HP163 (Levofloxacin and metronidazole resistant), 72 h
Experimental: (§4) 2.1 Detection of minimum inhibitory concentration (MIC, 100 µL system) of zinc linolenate for Helicobacter pylori by a broth microdilution method
as §1
as §2, with “Helicobacter” for “non-Helicobacter”, “10” for “100”, “1×10^7” for “1×10^6”, “for later” for “for”
(§5) (4) Inoculation of bacterial solution: 10 μL of bacterial solution above is taken and added to the 1-8th wells (the concentration of the bacterial solution per well is about 1.0×10^6 CFU/mL). Culture is performed for 72 h to judge the result. The drug concentrations of the 1-7th wells are 64, 32, 16, 8, 4, 2, and 1 μg/mL, respectively.
as §3

[3] = tested on: Helicobacter pylori HP162; assay: MIC by broth microdilution method; parameters: key: +: Bacterial growth; −: No bacterial growth; details: HP162 (Levofloxacin resistant), 72 h
Experimental: as §4, §1
as §2, with “Helicobacter” for “non-Helicobacter”, “10” for “100”, “1×10^7” for “1×10^6”, “for later” for “for”
as §5, §3

[4] = tested on: Helicobacter pylori NSH57; assay: MIC by broth microdilution method; parameters: key: +: Bacterial growth; −: No bacterial growth; details: NSH57 (Sensitive), 72 h
Experimental: as §4, §1
as §2, with “Helicobacter” for “non-Helicobacter”, “10” for “100”, “1×10^7” for “1×10^6”, “for later” for “for”
as §5, §3

[5] = tested on: Helicobacter pylori HP160; assay: MIC by broth microdilution method; parameters: key: +: Bacterial growth; −: No bacterial growth; details: HP160 (Metronidazole resistant), 72 h
Experimental: as §4, §1
as §2, with “Helicobacter” for “non-Helicobacter”, “10” for “100”, “1×10^7” for “1×10^6”, “for later” for “for”
as §5, §3

[6] = tested on: Helicobacter pylori HP26695; assay: MIC by broth microdilution method; parameters: key: +: Bacterial growth; −: No bacterial growth; details: HP26695 (Sensitive), 72 h
Experimental: as §4, §1
as §2, with “Helicobacter” for “non-Helicobacter”, “10” for “100”, “1×10^7” for “1×10^6”, “for later” for “for”
as §5, §3

[7] = tested on: Helicobacter pylori MSD132; assay: MIC by broth microdilution method; parameters: key: +: Bacterial growth; −: No bacterial growth; details: MSD132 (Sensitive), 72 h
Experimental: as §4, §1
as §2, with “Helicobacter” for “non-Helicobacter”, “10” for “100”, “1×10^7” for “1×10^6”, “for later” for “for”
as §5, §3

Helicobacter pylori G27 = assay: MIC by broth microdilution method; parameters: key: +: Bacterial growth; −: No bacterial growth; details: G27 (Sensitive), 72 h
Experimental: as §4, §1
as §2, with “Helicobacter” for “non-Helicobacter”, “10” for “100”, “1×10^7” for “1×10^6”, “for later” for “for”
as §5, §3

[8] = tested on: Helicobacter pylori HP161; assay: MIC by broth microdilution method; parameters: key: +: Bacterial growth; −: No bacterial growth; details: HP161 (Clarithromycin resistant), 72 h
Experimental: as §4, §1
as §2, with “Helicobacter” for “non-Helicobacter”, “10” for “100”, “1×10^7” for “1×10^6”, “for later” for “for”
as §5, §3

[9] = tested on: Helicobacter pylori HP159; assay: MIC by broth microdilution method; parameters: key: +: Bacterial growth; −: No bacterial growth; details: HP159 (Levofloxacin, clarithromycin and metronidazole resistant), 72 h
Experimental: as §4, §1
as §2, with “Helicobacter” for “non-Helicobacter”, “10” for “100”, “1×10^7” for “1×10^6”, “for later” for “for”
as §5, §3

[10] = tested on: Helicobacter pylori HP285; assay: MIC by broth microdilution method; parameters: key: +: Bacterial growth; −: No bacterial growth; details: HP285 (Clarithromycin and metronidazole resistant), 72 h
Experimental: as §4, §1
as §2, with “Helicobacter” for “non-Helicobacter”, “10” for “100”, “1×10^7” for “1×10^6”, “for later” for “for”
as §5, §3

CC/C=C\C/C=C\C/C=C\CCCCCCCC(=O)[O-].CC/C=C\C/C=C\C/C=C\CCCCCCCC(=O)[O-].[Zn+2] [zinc linolenate]
+: Bacterial growth ([2]; zinc linolenate 1 μg/ml) | Bacterial growth ([2]; zinc linolenate 2 μg/ml) | Bacterial growth ([2]; zinc linolenate 4 μg/ml) | Bacterial growth ([3]; zinc linolenate 1 μg/ml) | Bacterial growth ([4]; zinc linolenate 1 μg/ml) | Bacterial growth ([4]; zinc linolenate 2 μg/ml) | Bacterial growth ([4]; zinc linolenate 4 μg/ml) | Bacterial growth ([5]; zinc linolenate 1 μg/ml) | Bacterial growth ([5]; zinc linolenate 2 μg/ml) | Bacterial growth ([6]; zinc linolenate 1 μg/ml) | Bacterial growth ([6]; zinc linolenate 2 μg/ml) | Bacterial growth ([6]; zinc linolenate 4 μg/ml) | Bacterial growth ([7]; zinc linolenate 1 μg/ml) | Bacterial growth ([7]; zinc linolenate 2 μg/ml) | Bacterial growth ([7]; zinc linolenate 4 μg/ml) | Bacterial growth (Helicobacter pylori G27; zinc linolenate 1 μg/ml) | Bacterial growth (Helicobacter pylori G27; zinc linolenate 2 μg/ml) | Bacterial growth ([8]; zinc linolenate 1 μg/ml) | Bacterial growth ([8]; zinc linolenate 2 μg/ml) | Bacterial growth ([8]; zinc linolenate 4 μg/ml) | Bacterial growth ([9]; zinc linolenate 1 μg/ml) | Bacterial growth ([9]; zinc linolenate 2 μg/ml) | Bacterial growth ([9]; zinc linolenate 4 μg/ml) | Bacterial growth ([10]; zinc linolenate 1 μg/ml) | Bacterial growth ([10]; zinc linolenate 2 μg/ml) | Bacterial growth ([10]; zinc linolenate 4 μg/ml)
−: Bacterial growth ([2]; zinc linolenate 8 μg/ml) | Bacterial growth ([2]; zinc linolenate 16 μg/ml) | Bacterial growth ([2]; zinc linolenate 32 μg/ml) | Bacterial growth ([2]; zinc linolenate 64 μg/ml) | Bacterial growth ([3]; zinc linolenate 2 μg/ml) | Bacterial growth ([3]; zinc linolenate 4 μg/ml) | Bacterial growth ([3]; zinc linolenate 8 μg/ml) | Bacterial growth ([3]; zinc linolenate 16 μg/ml) | Bacterial growth ([3]; zinc linolenate 32 μg/ml) | Bacterial growth ([3]; zinc linolenate 64 μg/ml) | Bacterial growth ([4]; zinc linolenate 8 μg/ml) | Bacterial growth ([4]; zinc linolenate 16 μg/ml) | Bacterial growth ([4]; zinc linolenate 32 μg/ml) | Bacterial growth ([4]; zinc linolenate 64 μg/ml) | Bacterial growth ([5]; zinc linolenate 4 μg/ml) | Bacterial growth ([5]; zinc linolenate 8 μg/ml) | Bacterial growth ([5]; zinc linolenate 16 μg/ml) | Bacterial growth ([5]; zinc linolenate 32 μg/ml) | Bacterial growth ([5]; zinc linolenate 64 μg/ml) | Bacterial growth ([6]; zinc linolenate 8 μg/ml) | Bacterial growth ([6]; zinc linolenate 16 μg/ml) | Bacterial growth ([6]; zinc linolenate 32 μg/ml) | Bacterial growth ([6]; zinc linolenate 64 μg/ml) | Bacterial growth ([7]; zinc linolenate 8 μg/ml) | Bacterial growth ([7]; zinc linolenate 16 μg/ml) | Bacterial growth ([7]; zinc linolenate 32 μg/ml) | Bacterial growth ([7]; zinc linolenate 64 μg/ml) | Bacterial growth (Helicobacter pylori G27; zinc linolenate 4 μg/ml) | Bacterial growth (Helicobacter pylori G27; zinc linolenate 8 μg/ml) | Bacterial growth (Helicobacter pylori G27; zinc linolenate 16 μg/ml) | Bacterial growth (Helicobacter pylori G27; zinc linolenate 32 μg/ml) | Bacterial growth (Helicobacter pylori G27; zinc linolenate 64 μg/ml) | Bacterial growth ([8]; zinc linolenate 8 μg/ml) | Bacterial growth ([8]; zinc linolenate 16 μg/ml) | Bacterial growth ([8]; zinc linolenate 32 μg/ml) | Bacterial growth ([8]; zinc linolenate 64 μg/ml) | Bacterial growth ([9]; zinc linolenate 8 μg/ml) | Bacterial growth ([9]; zinc linolenate 16 μg/ml) | Bacterial growth ([9]; zinc linolenate 32 μg/ml) | Bacterial growth ([9]; zinc linolenate 64 μg/ml) | Bacterial growth ([10]; zinc linolenate 8 μg/ml) | Bacterial growth ([10]; zinc linolenate 16 μg/ml) | Bacterial growth ([10]; zinc linolenate 32 μg/ml) | Bacterial growth ([10]; zinc linolenate 64 μg/ml)
greater than or equal to 128 μg/mL: MIC [1]
smaller than that of linolenic acid: toxicity compared with linolenic acid (Ges-1 cells)
